Among the test systems are CAKI-1 renal; LOX IMVI melanoma; COLO 205 colon; OVCAR-3 ovarian; SF-268 CNS; SF-539 CNS; OVCAR-8 ovarian; HCT-15 colon; SF-295 CNS; HL-60(TB) leukemia.
Assay in all cases: inhibition of tumour cell growth, NCI panel, 48 h

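Step 1: Grow cells in 96-well plates. Step 2: Expose to compound for 48 hours at 5 concentrations. Step 3: Interpolate endpoints linearly; if unreached, use highest concentration. The concentration for 50% growth inhibition is given as GI50. At the TGI there is no net growth.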

As for `CCOC(=O)c1c(C)n(Cc2ccc(Cl)cc2Cl)c2c1cc(O)c1[nH]c(Cc3ccccc3)nc12`, the GI50 was 8.29 µM in the experiment with CAKI-1 renal; 1.89 µM in the experiment on LOX IMVI melanoma; 5.04 µM with COLO 205 colon; 2.97 µM in the experiment with OVCAR-3 ovarian; 2.59 µM in the experiment with SF-268 CNS; 7.62 µM with SF-539 CNS. Further, the GI50 is 3.19 µM in the experiment with OVCAR-8 ovarian, 3.94 µM in the experiment on HCT-15 colon, 5.92 µM in the experiment with SF-295 CNS and 2.27 µM with HL-60(TB) leukemia. The TGI stood at 26.8 µM in the experiment with CAKI-1 renal; 3.66 µM with LOX IMVI melanoma; 30.1 µM with COLO 205 colon; 8.13 µM in the experiment with OVCAR-3 ovarian; 6.21 µM with SF-268 CNS; 19.9 µM in the experiment with SF-539 CNS. Besides, the TGI in the experiment with OVCAR-8 ovarian came to 11 µM; in the experiment on HCT-15 colon it was 18.5 µM; in the experiment with SF-295 CNS it was 26.2 µM; in the experiment on HL-60(TB) leukemia it was 5.38 µM.
Consider `CC(=O)OC1C(C)OC(Oc2c(-c3ccc(O)cc3)oc3cc(O)cc(O)c3c2=O)C(O)C1OC(C)=O` (stereo not given), for which the GI50 in the experiment with CAKI-1 renal was 41.4 µM; in the experiment with LOX IMVI melanoma it was 21 µM; in the experiment on COLO 205 colon, over 67.3 µM; in the experiment with OVCAR-3 ovarian, 20.6 µM; in the experiment with SF-268 CNS, 27 µM; in the experiment with SF-539 CNS, 29.1 µM. Moreover, the GI50 with OVCAR-8 ovarian is 29 µM; with HCT-15 colon, 52.3 µM; in the experiment with SF-295 CNS, 29.9 µM; with HL-60(TB) leukemia, 23.9 µM. Also, the TGI with CAKI-1 renal is over 100 µM; in the experiment on LOX IMVI melanoma, 50.2 µM; in the experiment with COLO 205 colon, over 100 µM; in the experiment on OVCAR-3 ovarian, 45.3 µM; in the experiment on SF-268 CNS it was over 89.5 µM; with SF-539 CNS, over 100 µM. The TGI with OVCAR-8 ovarian is over 84.9 µM; in the experiment on HCT-15 colon it was over 100 µM; in the experiment with SF-295 CNS, over 100 µM; in the experiment with HL-60(TB) leukemia it was 61.3 µM.
`CC1Nc2ccccc2NC1C=C(C#N)C#N` (stereo not given): the TGI came to 28.9 µM in the experiment on CAKI-1 renal; 25.5 µM in the experiment on LOX IMVI melanoma; 34.4 µM in the experiment on COLO 205 colon; 29.4 µM with OVCAR-3 ovarian; 29.9 µM in the experiment with SF-268 CNS; 26 µM with SF-539 CNS. Further, the TGI in the experiment with OVCAR-8 ovarian is 23.1 µM; with HCT-15 colon it was 37.3 µM; in the experiment with SF-295 CNS, 28.9 µM; in the experiment with HL-60(TB) leukemia, 4.69 µM.
Regarding `O=C1/C(=C/c2ccccc2)CN(C(=O)/C=C/c2ccccc2)C/C1=C\c1ccccc1`, the TGI in the experiment with CAKI-1 renal is 99.4 µM; in the experiment on LOX IMVI melanoma, 7.1 µM; in the experiment on COLO 205 colon, 19.4 µM; with OVCAR-3 ovarian, 24.7 µM; with SF-268 CNS, 38.7 µM; in the experiment on SF-539 CNS, 24.8 µM. The TGI in the experiment with OVCAR-8 ovarian stood at 9.78 µM; in the experiment on HCT-15 colon, 18.3 µM; with SF-295 CNS it was 17 µM; in the experiment on HL-60(TB) leukemia it was 16.4 µM.
In the case of `COc1cccc(/C=C2\COc3ccc(O)c(O)c3C2=O)c1OC`, the GI50 is 1.71 µM in the experiment on CAKI-1 renal; 1.53 µM with LOX IMVI melanoma; 3.01 µM with COLO 205 colon; 1.16 µM with OVCAR-3 ovarian; 2.12 µM with SF-268 CNS; 2.07 µM in the experiment with SF-539 CNS. For the same compound, the GI50 with OVCAR-8 ovarian is 2.76 µM; in the experiment on HCT-15 colon, 1.6 µM; with SF-295 CNS it was 6.07 µM; in the experiment with HL-60(TB) leukemia it was 1.04 µM. Besides, the TGI with CAKI-1 renal came out at 4.69 µM; in the experiment with LOX IMVI melanoma it was 3.08 µM; in the experiment with COLO 205 colon, 8.38 µM; in the experiment with OVCAR-3 ovarian, 2.85 µM; in the experiment with SF-268 CNS it was 10.3 µM; with SF-539 CNS, 4.77 µM. Besides, the TGI is 20.9 µM in the experiment with OVCAR-8 ovarian, 10.5 µM with HCT-15 colon, 19.1 µM in the experiment on SF-295 CNS and over 100 µM in the experiment on HL-60(TB) leukemia.
For the compound `Nc1ncnc2occ(-c3ccc(NC(=O)Nc4cccc(C(F)(F)F)c4)cc3)c12`, the GI50 was 2.29 µM in the experiment with CAKI-1 renal; 2.57 µM in the experiment with LOX IMVI melanoma; 4.53 µM with COLO 205 colon; 4.79 µM in the experiment with OVCAR-3 ovarian; 3.54 µM in the experiment with SF-268 CNS; 0.702 µM in the experiment with SF-539 CNS. In addition, the GI50 is 2.85 µM in the experiment with OVCAR-8 ovarian, 4.24 µM in the experiment with HCT-15 colon, 3.76 µM with SF-295 CNS and 5.1 µM with HL-60(TB) leukemia. For the same compound, the TGI stood at 13 µM in the experiment with CAKI-1 renal; 12.1 µM in the experiment with LOX IMVI melanoma; 9.16 µM in the experiment on COLO 205 colon; 9.72 µM in the experiment on OVCAR-3 ovarian; 9.83 µM with SF-268 CNS; 7.1 µM with SF-539 CNS. The TGI in the experiment with OVCAR-8 ovarian was determined as 8.26 µM; with HCT-15 colon, 18.2 µM; in the experiment with SF-295 CNS, 15.7 µM; with HL-60(TB) leukemia, 14.2 µM.

The values are drawn from PubChem BioAssay (NCI).
